# Patent US9326506B2, “Preparation method, agricultural composition and applications of natural brassinolide analogs” (CHENGDU NEWSUN CROPSCIENCE CO., LTD, priority 2012, dated 2016)
# System: rice
# Assay: Low temperature assay on rice seedlings
# Type: in vivo
# Outline: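 Nine-day-old etiolated rice seedlings (grown on water at 30 °C±2 °C, dark) immersed in brassinolide analogues at 1–0.0001 mg/L or pure water, held at 1–5 °C for 24 hr. Plant height, leaf area, root weight read at 3, 6, 9, 12 days; leaf and tiller number at 12 days.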
smiles,measurement,setting,value
CC(C)(O)CC[C@@H](O)[C@](C)(O)[C@H]1CC[C@@]2(O)[C@@H]3CC(=O)[C@@H]4C[C@@H](O)[C@@H](O)C[C@]4(C)[C@H]3CC[C@]12C [BR6],Height,"0.01 mg/l, 3 °C, 9 days",7.4 cm
same,Weight of root,"0.01 mg/l, 3 °C, 9 days",2.9 g
same,Area of leaf,"0.01 mg/l, 3 °C, 12 days",13.2 cm^2
same,Height,"0.01 mg/l, 3 °C, 12 days",7.6 cm
same,Number of leaf,"0.01 mg/l, 3 °C, 12 days",3
same,Number of tiller,"0.01 mg/l, 3 °C, 12 days",2
same,Weight of root,"0.01 mg/l, 3 °C, 12 days",2.9 g
same,Area of leaf,"0.01 mg/l, 4 °C, 3 days",10.8 cm^2
same,Height,"0.01 mg/l, 4 °C, 3 days",7.1 cm
same,Weight of root,"0.01 mg/l, 4 °C, 3 days",2.5 g
same,Area of leaf,"0.01 mg/l, 4 °C, 6 days",12.4 cm^2
same,Height,"0.01 mg/l, 4 °C, 6 days",7.3 cm
same,Weight of root,"0.01 mg/l, 4 °C, 6 days",2.6 g
same,Area of leaf,"0.01 mg/l, 4 °C, 9 days",13.7 cm^2
same,Height,"0.01 mg/l, 4 °C, 9 days",7.6 cm
same,Weight of root,"0.01 mg/l, 4 °C, 9 days",2.9 g
same,Area of leaf,"0.01 mg/l, 4 °C, 12 days",13.7 cm^2
same,Height,"0.01 mg/l, 4 °C, 12 days",7.8 cm
same,Number of leaf,"0.01 mg/l, 4 °C, 12 days",3
same,Number of tiller,"0.01 mg/l, 4 °C, 12 days",2
same,Weight of root,"0.01 mg/l, 4 °C, 12 days",3.0 g
same,Area of leaf,"0.01 mg/l, 5 °C, 3 days",10.9 cm^2
same,Height,"0.01 mg/l, 5 °C, 3 days",7.7 cm
same,Weight of root,"0.01 mg/l, 5 °C, 3 days",2.8 g
same,Area of leaf,"0.01 mg/l, 5 °C, 6 days",13.9 cm^2
same,Height,"0.01 mg/l, 5 °C, 6 days",7.8 cm
same,Weight of root,"0.01 mg/l, 5 °C, 6 days",3.0 g
same,Area of leaf,"0.01 mg/l, 5 °C, 9 days",17.1 cm^2
same,Height,"0.01 mg/l, 5 °C, 9 days",8.1 cm
same,Weight of root,"0.01 mg/l, 5 °C, 9 days",3.4 g
same,Area of leaf,"0.01 mg/l, 5 °C, 12 days",18 cm^2
same,Height,"0.01 mg/l, 5 °C, 12 days",8.5 cm
same,Number of leaf,"0.01 mg/l, 5 °C, 12 days",4
same,Number of tiller,"0.01 mg/l, 5 °C, 12 days",3
same,Weight of root,"0.01 mg/l, 5 °C, 12 days",3.9 g
same,Area of leaf,"0.1 mg/l, 1 °C, 3 days",10.1 cm^2
same,Height,"0.1 mg/l, 1 °C, 3 days",7.0 cm
same,Weight of root,"0.1 mg/l, 1 °C, 3 days",2.8 g
same,Area of leaf,"0.1 mg/l, 1 °C, 6 days",12 cm^2
same,Height,"0.1 mg/l, 1 °C, 6 days",7.3 cm
same,Weight of root,"0.1 mg/l, 1 °C, 6 days",3.0 g
same,Area of leaf,"0.1 mg/l, 1 °C, 9 days",12.9 cm^2
same,Height,"0.1 mg/l, 1 °C, 9 days",7.3 cm
same,Weight of root,"0.1 mg/l, 1 °C, 9 days",3.4 g
same,Area of leaf,"0.1 mg/l, 1 °C, 12 days",13.4 cm^2
same,Height,"0.1 mg/l, 1 °C, 12 days",7.5 cm
same,Number of leaf,"0.1 mg/l, 1 °C, 12 days",3
same,Number of tiller,"0.1 mg/l, 1 °C, 12 days",3
same,Weight of root,"0.1 mg/l, 1 °C, 12 days",3.7 g
same,Area of leaf,"0.1 mg/l, 2 °C, 3 days",10.4 cm^2
same,Height,"0.1 mg/l, 2 °C, 3 days",7.1 cm
same,Weight of root,"0.1 mg/l, 2 °C, 3 days",2.9 g
same,Area of leaf,"0.1 mg/l, 2 °C, 6 days",11.8 cm^2
same,Height,"0.1 mg/l, 2 °C, 6 days",7.2 cm
same,Weight of root,"0.1 mg/l, 2 °C, 6 days",3.0 g
same,Area of leaf,"0.1 mg/l, 2 °C, 9 days",12.8 cm^2
same,Height,"0.1 mg/l, 2 °C, 9 days",7.3 cm
same,Weight of root,"0.1 mg/l, 2 °C, 9 days",3.1 g
same,Area of leaf,"0.1 mg/l, 2 °C, 12 days",13 cm^2
same,Height,"0.1 mg/l, 2 °C, 12 days",7.4 cm
same,Number of leaf,"0.1 mg/l, 2 °C, 12 days",3
same,Number of tiller,"0.1 mg/l, 2 °C, 12 days",3
same,Weight of root,"0.1 mg/l, 2 °C, 12 days",3.2 g
same,Area of leaf,"0.1 mg/l, 3 °C, 3 days",10.5 cm^2
same,Height,"0.1 mg/l, 3 °C, 3 days",7.2 cm
same,Weight of root,"0.1 mg/l, 3 °C, 3 days",2.5 g
same,Area of leaf,"0.1 mg/l, 3 °C, 6 days",12 cm^2
same,Height,"0.1 mg/l, 3 °C, 6 days",7.3 cm
same,Weight of root,"0.1 mg/l, 3 °C, 6 days",2.6 g
same,Area of leaf,"0.1 mg/l, 3 °C, 9 days",12.8 cm^2
same,Height,"0.1 mg/l, 3 °C, 9 days",7.4 cm
same,Weight of root,"0.1 mg/l, 3 °C, 9 days",2.8 g
same,Area of leaf,"0.1 mg/l, 3 °C, 12 days",13.2 cm^2
same,Height,"0.1 mg/l, 3 °C, 12 days",7.5 cm
same,Number of leaf,"0.1 mg/l, 3 °C, 12 days",3
same,Number of tiller,"0.1 mg/l, 3 °C, 12 days",2
same,Weight of root,"0.1 mg/l, 3 °C, 12 days",2.9 g
same,Area of leaf,"0.1 mg/l, 4 °C, 3 days",10.8 cm^2
same,Height,"0.1 mg/l, 4 °C, 3 days",7.1 cm
same,Weight of root,"0.1 mg/l, 4 °C, 3 days",2.5 g
same,Area of leaf,"0.1 mg/l, 4 °C, 6 days",12.5 cm^2
same,Height,"0.1 mg/l, 4 °C, 6 days",7.4 cm
same,Weight of root,"0.1 mg/l, 4 °C, 6 days",2.7 g
same,Area of leaf,"0.1 mg/l, 4 °C, 9 days",13.5 cm^2
same,Height,"0.1 mg/l, 4 °C, 9 days",7.5 cm
same,Weight of root,"0.1 mg/l, 4 °C, 9 days",2.9 g
same,Area of leaf,"0.1 mg/l, 4 °C, 12 days",13.8 cm^2
same,Height,"0.1 mg/l, 4 °C, 12 days",7.7 cm
same,Number of leaf,"0.1 mg/l, 4 °C, 12 days",3
same,Number of tiller,"0.1 mg/l, 4 °C, 12 days",2
same,Weight of root,"0.1 mg/l, 4 °C, 12 days",3.1 g
same,Area of leaf,"0.1 mg/l, 5 °C, 3 days",11.1 cm^2
same,Height,"0.1 mg/l, 5 °C, 3 days",7.7 cm
same,Weight of root,"0.1 mg/l, 5 °C, 3 days",2.9 g
same,Area of leaf,"0.1 mg/l, 5 °C, 6 days",13.9 cm^2
same,Height,"0.1 mg/l, 5 °C, 6 days",7.8 cm
same,Weight of root,"0.1 mg/l, 5 °C, 6 days",3.2 g
same,Area of leaf,"0.1 mg/l, 5 °C, 9 days",17.8 cm^2
same,Height,"0.1 mg/l, 5 °C, 9 days",8.4 cm
same,Weight of root,"0.1 mg/l, 5 °C, 9 days",3.5 g
same,Area of leaf,"0.1 mg/l, 5 °C, 12 days",18.9 cm^2
same,Height,"0.1 mg/l, 5 °C, 12 days",8.6 cm
same,Number of leaf,"0.1 mg/l, 5 °C, 12 days",3
same,Number of tiller,"0.1 mg/l, 5 °C, 12 days",2
same,Weight of root,"0.1 mg/l, 5 °C, 12 days",4 g
same,Area of leaf,"1 mg/l, 1 °C, 3 days",10 cm^2
same,Height,"1 mg/l, 1 °C, 3 days",7.1 cm
same,Weight of root,"1 mg/l, 1 °C, 3 days",2.8 g
same,Area of leaf,"1 mg/l, 1 °C, 6 days",11.2 cm^2
same,Height,"1 mg/l, 1 °C, 6 days",7.2 cm
same,Weight of root,"1 mg/l, 1 °C, 6 days",3.1 g
same,Area of leaf,"1 mg/l, 1 °C, 9 days",12.4 cm^2
same,Height,"1 mg/l, 1 °C, 9 days",7.3 cm
same,Weight of root,"1 mg/l, 1 °C, 9 days",3.4 g
same,Area of leaf,"1 mg/l, 1 °C, 12 days",12.8 cm^2
same,Height,"1 mg/l, 1 °C, 12 days",7.3 cm
same,Number of leaf,"1 mg/l, 1 °C, 12 days",3
same,Number of tiller,"1 mg/l, 1 °C, 12 days",3
same,Weight of root,"1 mg/l, 1 °C, 12 days",3.9 g
same,Area of leaf,"1 mg/l, 2 °C, 3 days",10.2 cm^2
same,Height,"1 mg/l, 2 °C, 3 days",7.1 cm
same,Weight of root,"1 mg/l, 2 °C, 3 days",2.8 g
same,Area of leaf,"1 mg/l, 2 °C, 6 days",11.7 cm^2
same,Height,"1 mg/l, 2 °C, 6 days",7.2 cm
same,Weight of root,"1 mg/l, 2 °C, 6 days",3.0 g
same,Area of leaf,"1 mg/l, 2 °C, 9 days",12.6 cm^2
same,Height,"1 mg/l, 2 °C, 9 days",7.3 cm
same,Weight of root,"1 mg/l, 2 °C, 9 days",3.2 g
same,Area of leaf,"1 mg/l, 2 °C, 12 days",13.1 cm^2
same,Height,"1 mg/l, 2 °C, 12 days",7.6 cm
same,Number of leaf,"1 mg/l, 2 °C, 12 days",3
same,Number of tiller,"1 mg/l, 2 °C, 12 days",3
same,Weight of root,"1 mg/l, 2 °C, 12 days",3.9 g
same,Area of leaf,"1 mg/l, 3 °C, 3 days",10.4 cm^2
same,Height,"1 mg/l, 3 °C, 3 days",7.1 cm
same,Weight of root,"1 mg/l, 3 °C, 3 days",2.5 g
same,Area of leaf,"1 mg/l, 3 °C, 6 days",12.2 cm^2
same,Height,"1 mg/l, 3 °C, 6 days",7.3 cm
same,Weight of root,"1 mg/l, 3 °C, 6 days",2.6 g
same,Area of leaf,"1 mg/l, 3 °C, 9 days",12.6 cm^2
same,Height,"1 mg/l, 3 °C, 9 days",7.5 cm
same,Weight of root,"1 mg/l, 3 °C, 9 days",2.9 g
same,Area of leaf,"1 mg/l, 3 °C, 12 days",13.2 cm^2
same,Height,"1 mg/l, 3 °C, 12 days",7.6 cm
same,Number of leaf,"1 mg/l, 3 °C, 12 days",3
same,Number of tiller,"1 mg/l, 3 °C, 12 days",2
same,Weight of root,"1 mg/l, 3 °C, 12 days",2.9 g
same,Area of leaf,"1 mg/l, 4 °C, 3 days",10.9 cm^2
same,Height,"1 mg/l, 4 °C, 3 days",7.1 cm
same,Weight of root,"1 mg/l, 4 °C, 3 days",2.5 g
same,Area of leaf,"1 mg/l, 4 °C, 6 days",12 cm^2
same,Height,"1 mg/l, 4 °C, 6 days",7.5 cm
same,Weight of root,"1 mg/l, 4 °C, 6 days",2.6 g
same,Area of leaf,"1 mg/l, 4 °C, 9 days",13.4 cm^2
same,Height,"1 mg/l, 4 °C, 9 days",7.5 cm
same,Weight of root,"1 mg/l, 4 °C, 9 days",3.0 g
same,Area of leaf,"1 mg/l, 4 °C, 12 days",14 cm^2
same,Height,"1 mg/l, 4 °C, 12 days",7.7 cm
same,Number of leaf,"1 mg/l, 4 °C, 12 days",3
same,Number of tiller,"1 mg/l, 4 °C, 12 days",2
same,Weight of root,"1 mg/l, 4 °C, 12 days",3.2 g
same,Area of leaf,"1 mg/l, 5 °C, 3 days",11.1 cm^2
same,Height,"1 mg/l, 5 °C, 3 days",7.7 cm
same,Weight of root,"1 mg/l, 5 °C, 3 days",2.9 g
same,Area of leaf,"1 mg/l, 5 °C, 6 days",13.6 cm^2
same,Height,"1 mg/l, 5 °C, 6 days",8.0 cm
same,Weight of root,"1 mg/l, 5 °C, 6 days",3.6 g
same,Area of leaf,"1 mg/l, 5 °C, 9 days",18.9 cm^2
same,Height,"1 mg/l, 5 °C, 9 days",8.8 cm
same,Weight of root,"1 mg/l, 5 °C, 9 days",3.7 g
same,Area of leaf,"1 mg/l, 5 °C, 12 days",20 cm^2
same,Height,"1 mg/l, 5 °C, 12 days",8.9 cm
same,Number of leaf,"1 mg/l, 5 °C, 12 days",3
same,Number of tiller,"1 mg/l, 5 °C, 12 days",2
same,Weight of root,"1 mg/l, 5 °C, 12 days",4.5 g
same,Effects on resistance to low temperature compared among analogues,in vivo,"more than those of BR2, BR3 and BR4"
